Legend:
[1] = system: HepG2.2.15 cells; experiment: Cytotoxicity determination in HepG2.2.15 cells; assay type: cell-based; conditions: 50% of the cells show a morphology comparable to the cell control
Description: Before harvesting the supernatants to determine the antiviral effect, the HepG2.2.15 cells were examined under the light microscope or by means of biochemical detection methods (for example Alamar Blue stain or Trypan Blue stain) for cytotoxic changes.
Substance-induced cytotoxic or cytostatic changes in the HepG2.2.15 cells were detected, for example, under the light microscope as changes in cell morphology. Such substance-induced changes in the HepG2.2.15 cells compared with untreated cells were visible, for example, as cytolysis, vacuolation or altered cell morphology. […]
No cytotoxic changes were detectable at concentrations >10 μM of the compounds of the invention.

[2] = system: hepatitis B virus; experiment: Antiviral action on hepatitis B virus in HepG2.2.15 cells (HBV DNA dot-blot hybridization); assay type: cell-based; conditions: 192 h, 8 days treatment, intra- or extracellular hepatitis B-specific DNA band reduced by 50% compared with untreated sample
Procedure: The antiviral action of the compounds of the invention on hepatitis B virus was investigated by methods based on those described by M. A. Sells et al., Proc. Natl. Acad. Sci. 84, 1005–1009 (1987) and B. E. Korba et al., Antiviral Research 19, 55–70 (1992).
The antiviral tests were carried out in 96-well microtiter plates. The first vertical row of the plate received only growth medium and HepG2.2.15 cells. It served as virus control.
Stock solutions of the test compounds (50 mM) were initially dissolved in DMSO, and further dilutions were prepared in the HepG2.2.15 growth medium. The compounds according to the invention were usually pipetted in a test concentration of 100 μM (1st test concentration) in each case into the second vertical test row of the microtiter plate and subsequently diluted in twofold steps 2^10 times in growth medium plus 2% by weight of fetal calf serum (volume 25 μl).
Each well of the microtiter plate then contained 225 μl of HepG2.2.15 cell suspension (5×10^4 cells/ml) in growth medium plus 2% by weight of fetal calf serum. The test mixture was incubated at 37° C. and 5% CO2 (v/v) for 4 days.
The supernatant was then aspirated off and discarded, and the wells received 225 μl of freshly prepared growth medium. The compounds according to the invention were each added anew as 10-fold concentrated solution in a volume of 25 μl. The mixtures were incubated for a further 4 days.
The supernatant and/or cells were then harvested and sucked by means of a vacuum onto 96-well dot-blot chambers covered with a nylon membrane (in accordance with the manufacturer's information).
After the supernatants or lysed cells had been transferred to the nylon membrane of the blot apparatus (see above), the intra- or extracellular supernatants of the HepG2.2.15 cells were denatured (1.5 M NaCl/0.5 N NaOH), neutralized (3 M NaCl/0.5 M Tris HCl, pH 7.5) and washed (2×SSC). The DNA was then baked onto the membrane by incubating the filters at 120° C. for 2–4 hours.
Detection of the viral DNA from the treated HepG2.2.15 cells on the nylon filters was usually carried out with nonradioactive, digoxigenin-labeled hepatitis B-specific DNA probes, each of which was labeled with digoxigenin, purified and employed for the hybridization in accordance with the manufacturer's information.
The prehybridization and hybridization took place in 5×SSC, 1× blocking reagent, 0.1% by weight N-lauroylsarcosine, 0.02% by weight SDS and 100 μg of herring sperm DNA. The prehybridization took place at 60° C. for 30 minutes, and the specific hybridization with 20 to 40 ng/ml of the digoxigenized, denatured HBV-specific DNA (14 hours, 60° C.). The filters were then washed.
The immunological detection of the digoxigenin-labeled DNA took place in accordance with the manufacturer's information:
The filters were washed and prehybridized in a blocking reagent (in accordance with the manufacturer's information). Hybridization was then carried out with an anti-DIG antibody coupled to alkaline phosphatase for 30 minutes. After a washing step, the substrate of alkaline phosphatase, CSPD, was added, incubated with the filters for 5 minutes, then packed in plastic film and incubated at 37° C. for a further 15 minutes. The chemiluminescence of the hepatitis B-specific DNA signals was visualized by exposing the filters to an X-ray film (incubation depending on signal strength: 10 minutes to 2 hours).
The half-maximum inhibitory concentration (IC50, 50% inhibitory concentration) was determined as the concentration at which the intra- or extracellular hepatitis B-specific band was reduced by the compound according to the invention by 50% compared with an untreated sample.

| SMILES | melting point [°C] | Tox50 [1] [µM] | IC50 [2] [nM] |
| --- | --- | --- | --- |
| COC(=O)C1=C(CN2CCCC2)NC(c2ncc(F)cc2F)=NC1c1ccc(F)cc1Br (stereo not drawn) | 161 to 162 |  |  |
| COC(=O)C1=C(CN2CCSCC2)NC(c2ncccc2F)=NC1c1ccc(F)cc1Br (stereo not drawn) | 128 to 131 |  |  |
| COC(=O)C1=C(CN2CCSCC2)NC(c2ncccc2F)=NC1c1ccc(Cl)cc1Cl (stereo not drawn) | 137 |  |  |
| COC(=O)C1=C(CN2CCSC2)NC(c2ncccc2F)=NC1c1ccc(F)cc1Br (stereo not drawn) | 172 to 173 |  |  |
| COC(=O)C1=C(CN2CCSC2)NC(c2ncc(F)cc2F)=NC1c1ccc(F)cc1Br (stereo not drawn) | 183 to 184 |  |  |
| COC(=O)C1=C(CN2CCSCC2)NC(c2ncc(F)cc2F)=NC1c1ccc(F)cc1Br (stereo not drawn) | 173 to 174 |  |  |
| COC(=O)C1=C(CN2CCSCC2)NC(c2ncccc2F)=NC1c1ccc(F)cc1Cl (stereo not drawn) | 145 |  |  |
| COC(=O)C1=C(CN2CCSC2)NC(c2ncccc2F)=NC1c1ccc(F)cc1Cl (stereo not drawn) | 163 to 164 |  |  |
| COC(=O)C1=C(CN(CCO)Cc2ccccc2)NC(c2ncccc2F)=NC1c1ccc(F)cc1Br (stereo not drawn) | 121 |  |  |
| COC(=O)C1=C(CN(CCO)Cc2ccccc2)NC(c2ncc(F)cc2F)=NC1c1ccc(F)cc1Br (stereo not drawn) | 135 |  |  |
| COC(=O)C1=C(CN(CCO)Cc2ccccc2)NC(c2ncccc2F)=NC1c1ccc(F)cc1Cl (stereo not drawn) | 128 |  |  |
| COC(=O)C1=C(CN2CCSC2)NC(c2nccs2)=NC1c1ccc(Cl)cc1Cl (stereo not drawn) | 169 to 170 |  |  |
| COC(=O)C1=C(CN(CCO)CCO)NC(c2nccs2)=NC1c1ccc(Cl)cc1Cl (stereo not drawn) | 133 |  |  |
| COC(=O)C1=C(CN2CCCCC2)NC(c2ncccc2F)=NC1c1ccc(Cl)cc1Cl (stereo not drawn) | 155 to 156 |  |  |
| COC(=O)C1=C(CCN2CCSC2)NC(c2ncc(F)cc2F)=NC1c1ccc(F)cc1Cl (stereo not drawn) [Example 2, Methyl 4-(2-chloro-4-fluorophenyl)-2-(3,5-difluoro-2-pyridyl)-6-[2-(1,3-thiazolidin-3-yl)-ethyl]-1,4-dihydropyrimidine-5-carboxylate] |  | 38 | 400 |
| COC(=O)C1=C(CN2CCOCC2)NC(c2ncc(F)cc2F)=N[C@H]1c1ccc(F)cc1Cl [Example 5] | 178 | 40 | 2 |
| COC(=O)C1=C(CN2CCOCC2)NC(c2ncccc2F)=NC1c1ccc(Cl)cc1Cl (stereo not drawn) [Example 7] | 182 to 183 | 25 | 25 |
| COC(=O)C1=C(CN2CCOCC2)NC(c2ncc(F)cc2F)=NC1c1ccc(F)cc1Br (stereo not drawn) [Example 9] | 216 to 218 | 17 | 7 |
| COC(=O)C1=C(CN2CCSCC2)NC(c2ncc(F)cc2F)=N[C@H]1c1ccc(F)cc1Cl [Example 11] |  | >8 | 40 |
| COC(=O)C1=C(CN2CCSCC2)NC(c2ncc(F)cc2F)=NC1c1ccc(Cl)cc1Cl (stereo not drawn) [Example 15] | 166 to 168 | 3 | 50 |
| COC(=O)C1=C(CN2CCOCC2)NC(c2ncccc2F)=NC1c1ccc(F)cc1Br (stereo not drawn) [Example 24] | 156 to 158 | 80 | 20 |
| COC(=O)C1=C(CN2CCOCC2)NC(c2ncc(F)cc2F)=N[C@H]1c1ccc(F)cc1Br [Example 31] | 189 to 190 | 63 | 2 |
| COC(=O)C1=C(CN2CCOCC2)NC(c2ncccc2F)=NC1c1ccc(F)cc1Cl (stereo not drawn) [Example 34] | 161 to 163 | 60 | 9 |
| COC(=O)C1=C(CN2CCOCC2)NC(c2nccs2)=NC1c1ccc(Cl)cc1Cl (stereo not drawn) [Example 45] | 149 | 34 | 2 |

Now from value to compound, other results behind:

| melting point [°C] | SMILES | Tox50 [1] [µM] | IC50 [2] [nM] |
| --- | --- | --- | --- |
| 225 to 227 | COC(=O)C1=C(CN2CCOCC2)NC(c2ncc(F)cc2F)=NC1c1ccc(Cl)cc1Cl (stereo not drawn) |  |  |
| 168 to 170 | COC(=O)C1=C(CN2CCCC2)NC(c2ncc(F)cc2F)=NC1c1ccc(Cl)cc1Cl (stereo not drawn) |  |  |
| 189 to 191 | COC(=O)C1=C(CN2CCSC2)NC(c2ncc(F)cc2F)=NC1c1ccc(Cl)cc1Cl (stereo not drawn) |  |  |
| 142 to 143 | CCN(C)CC1=C(C(=O)OC)C(c2ccc(Cl)cc2Cl)N=C(c2ncc(F)cc2F)N1 (stereo not drawn) |  |  |
| 175 | COC(=O)C1=C(CN2CCSC2)NC(c2ncccc2F)=NC1c1ccc(Cl)cc1Cl (stereo not drawn) |  |  |
| 155 | COC(=O)C1=C(CN(CCO)CCO)NC(c2ncccc2F)=NC1c1ccc(Cl)cc1Cl (stereo not drawn) |  |  |
| 144 to 145 | COC(=O)C1=C(CN(CCO)CCO)NC(c2ncc(F)cc2F)=NC1c1ccc(Cl)cc1Cl (stereo not drawn) |  |  |
| 114 to 116 | COC(=O)C1=C(CN(C)CCO)NC(c2ncc(F)cc2F)=NC1c1ccc(F)cc1Br (stereo not drawn) |  |  |
| 117 to 119 | COC(=O)C1=C(CN(C)CCO)NC(c2ncccc2F)=NC1c1ccc(F)cc1Cl (stereo not drawn) |  |  |
| 119 to 120 | COC(=O)C1=C(CN(CCO)CCO)NC(c2ncccc2F)=NC1c1ccc(F)cc1Cl (stereo not drawn) |  |  |
| 132 | COC(=O)C1=C(CN(C)CCO)NC(c2nccs2)=NC1c1ccc(Cl)cc1Cl (stereo not drawn) |  |  |
| 123 to 126 | COC(=O)C1=C(Cn2ccnc2)NC(c2ncc(F)cc2F)=NC1c1ccc(F)cc1Br (stereo not drawn) |  |  |
